Among the data in patent US20090209554A1, “Thiazoliums as transketolase inhibitors” (ARRAY BIOPHARMA INC., priority 2004, published 2009) are IC50 values, retold here.

The target of experiment [1] is T1, transketolase (TK) in colon carcinoma HCT116 cells (Homo sapiens, UniProt P29401).
T1 construct: endogenous in cells; host or cells: HCT116
T1 sequence (P29401 1-623): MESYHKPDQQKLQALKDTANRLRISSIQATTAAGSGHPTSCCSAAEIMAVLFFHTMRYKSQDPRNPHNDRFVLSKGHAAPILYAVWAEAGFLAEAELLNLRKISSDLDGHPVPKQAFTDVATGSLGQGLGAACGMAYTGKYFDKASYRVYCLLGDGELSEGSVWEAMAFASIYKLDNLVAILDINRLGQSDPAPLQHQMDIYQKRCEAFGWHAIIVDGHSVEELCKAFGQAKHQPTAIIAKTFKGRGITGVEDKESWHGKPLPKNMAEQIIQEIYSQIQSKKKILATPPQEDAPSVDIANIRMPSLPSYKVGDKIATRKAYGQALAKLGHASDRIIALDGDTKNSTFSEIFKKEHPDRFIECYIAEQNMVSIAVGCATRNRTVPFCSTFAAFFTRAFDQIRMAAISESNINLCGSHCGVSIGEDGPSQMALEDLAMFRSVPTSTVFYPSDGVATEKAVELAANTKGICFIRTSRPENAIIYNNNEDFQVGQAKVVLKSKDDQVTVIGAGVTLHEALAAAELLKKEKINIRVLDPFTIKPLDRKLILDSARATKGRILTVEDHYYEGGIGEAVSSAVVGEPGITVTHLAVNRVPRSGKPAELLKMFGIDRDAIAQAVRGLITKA
Description: Cellular transketolase inhibition assay in HCT116. Particulars: colon carcinoma HCT116, thiamine-free DMEM, 48 h after compound treatment, TK activity in lysate. The experiment is classed as cell-based. The procedure: Determining Inhibition Constants of TPP Mimetics in Cellular Assay
Log-phase cells were trypsinized, washed and resuspended in thiamine-free DMEM. Optimization of the initial cell counts was carried out for each cell line prior to IC50 measurements. […] Using this initial cell count, IC50 could be monitored for six days.
Media containing 8,000 cells (95 μl) were used to seed individual wells in a 96-well clear-bottom cell cultured-treated sterile plate. Inhibitor compounds were dissolved in 100% DMSO as 10 mM solutions. Serial dilutions were then made in 100% DMSO to make up a 100× stock, then diluted to 20× in double-deionized H2O (ddH2O). Twenty-four hours after seeding, 5 μl of 20× inhibitor compound stock solution was added to the cells so that the final concentration of DMSO was 1%. Media were changed after 24 hours. Forty-eight hours after inhibitor compound treatment, the plates were inverted to remove media and blotted on a paper towel. The plates were then either subjected to enzymatic reactions immediately or were frozen at −20° C. for future assays.
Lysis buffer (20 mM HEPES, pH 7.5, 1 mM EDTA, 0.2 g/l Triton X-100® and 0.2 g/L sodium deoxycholate, supplemented with 1 mM DTT and 1 mM PMSF just before use, 80 μl) were added to each well of the assay plate and allow cell lysis at RT with shaking. Then 15 ul of 5× assay buffer containing final concentrations of 50 mM HEPES, 40 mM KCl, 2.5 mM MgCl2, 5 mM NaArsenate, 1 mM NAD, 2 unit/ml glyceraldehyde-3-phosphate dehydrogenase (GAPDH) was added to the 80 ul of lysate. Reaction kinetics were monitored on a fluorescent plate reader to allow any possible background activity via GAPDH to burn out. Then 5 ul of substrate mix containing final concentrations of 0.5 mM ribose-5-phosphate and 0.5 mM xylulose-5-phosphate was added to initiate the reaction. Monitor reaction kinetics were monitored using a fluorescent plate reader and the slope of the initial linear range was recorded as the velocity of the reaction (FU/min). Enzymatic inhibition was expressed as percent of control wells that were not treated with compounds. The values (y) were plotted as function of the log concentration (x) and fitted to a sigmoidal dose-response curve with variable slopes that bears the equation: y-bottom+(top-bottom)/(1+10̂((log EC50−x)*hillslope)).

The target in experiment [2] is T2, transketolase (purified TK apo enzyme) (Homo sapiens, UniProt P29401).
T2 sequence (P29401 1-623): T1 sequence (P29401 1-623)
Description: TPK-apoTK coupled cell-free TK inhibition assay (pyrophosphorylated compounds competing with TPP). The experiment is classed as biochemical. Particulars: compound enzymatically pyrophosphorylated by TPK1; 100 nM TK, 20 μM TPP. The procedure:
Determining Inhibition Constants of TPP Mimetics in Cell Free Assay (Purified TK apo Enzyme) Compounds scored as TPK1 substrates were then enzymatically converted to pyrophosphate and assessed for an ability to compete with TPP in inhibiting TK activity. The TK inhibition assay was carried out as follows. The pyrophosphorylation reaction mix consisted of 50 mM HEPES, 1 mM DTT, 1 mM MgCl2, pH 8.0, 1 to 10 mM thiamine analog, and 40 mM Mg-ATP. TKP1 (46.2 μg) was added in 10 μL aliquots every hour for 5 hours. The reaction mix was then incubated overnight at 4° C. TPK1 was removed by ultra-filtration using a 10,000 MWCO filter. The extent of reaction was monitored as described above. […] The above reaction mix (40 μL) was placed in a well of a Costar 3695 half-area plate and pre-incubated at room temperature for 30 min. It was then incubated for 2 minutes at 30° C. The reaction was initiated with the addition of 10 μL pentose phosphates (xylulose 5-phosphate and ribose 5-phosphate) with a final concentration of 0.5 mM. The reaction was monitored at 340 nm using a Molecular Devices Spectramax M2 plate reader. “TPK-TK” in the second column in Table 1 designates the thiamine pyrophosphate kinase/transketolase coupled reaction.

As to `Cc1c(CCO)sc[n+]1Cc1ccncc1`, the IC50 (as a rule, the concentration that gives 50% inhibition) in experiment [1] was over 100000 nM; in experiment [2], 421 nM.
On to `CC(=O)OCCc1sc[n+](Cc2ccc(C)nc2N)c1C`, for which, in experiment [1], half-maximal inhibition (IC50) required 6 nM.
In the case of `Cc1c(CCO)sc[n+]1Cc1cccnc1`, the IC50 in experiment [1] amounted to 731 nM; in experiment [2], 70.7 nM.
With `CCc1c(CCO)sc[n+]1Cc1ccc(C)nc1N`, the IC50 in experiment [1] is 1720 nM.
Turning to `COC(=O)c1cncc(C[n+]2csc(CCO)c2C)c1`, the values for the IC50 in experiment [1] and in experiment [2] were over 100000 nM and 382 nM, respectively.
For the compound `Cc1ncc(C[n+]2c(C)sc(CCO)c2C)c(N)n1`, in experiment [1], the IC50 came to 214 nM.
With `Cc1ccc(C[n+]2csc(CCC#N)c2C)c(N)n1`, the IC50 in experiment [1] worked out at 2170 nM. This IC50 is about 10-fold higher than that of the compound before.
With `Cc1c(CCO)sc[n+]1Cc1cccnc1C#N`, the IC50 in experiment [1] was over 33000 nM; in experiment [2], 123 nM.
The corresponding values for `Cc1ccc(C[n+]2cc(CCO)sc2C)c(N)n1` are 489 nM and 35.6 nM.
The corresponding values for `Cc1c(CCO)sc[n+]1Cc1ccc(C#N)nc1N` are 354 nM and 57.1 nM.
In experiment [1], `CCc1ccc(C[n+]2csc(CCO)c2C)c(N)n1` showed a half-maximal inhibitory concentration (IC50) of 74 nM. This counts as double-digit nanomolar.
On to `COc1ncc(CO)c(N)n1`, for which the IC50 in experiment [1] was over 100000 nM.
The same measure, in the same setting: the result for `Cc1ncc(C[n+]2csc(CCO)c2C)c(=O)[nH]1` reads 76 nM.
In the case of `CC(=O)Nc1ccc(C[n+]2csc(CCO)c2C)cc1`, the figures for the IC50 in experiment [1] and in experiment [2] were 24300 nM and 8.83 nM, respectively.
Taken in the same sequence, the figures for `Cc1cnc(N)c(C[n+]2csc(CCO)c2C)c1` were 862 nM and 109 nM.
As to `Cc1c(CCO)sc[n+]1Cc1cc([N+](=O)[O-])ccc1O`, the IC50 in experiment [1] is over 100000 nM.
In the case of `Cc1ccc(C[n+]2csc(CCO)c2CO)c(N)n1`, the IC50 in experiment [1] was found to be 236 nM; in experiment [2], 25.1 nM.
Turning to `Cc1c(CCO)sc[n+]1Cc1ccsc1C(N)=O`, the IC50 in experiment [1] was over 33000 nM.
In the case of `Cc1ccc(C[n+]2csc(CCO)c2)c(N)n1`, the IC50 in experiment [1] was determined as 9540 nM; in experiment [2], 29.1 nM.
Taken in the same sequence, the figures for `Cc1ccc(C[n+]2csc([C@@H](O)CO)c2C)c(N)n1` were 2200 nM and 26.8 nM.
The corresponding values for `Cc1ccc(C[n+]2csc([C@H](O)CO)c2C)c(N)n1` are 62 nM and 28.1 nM.
Taken in the same sequence, the figures for `CC(=O)Nc1ccc(C[n+]2csc(CCO)c2C)c(N)n1` were 803 nM and 22.5 nM.
In turn, `Cc1c(CCO)sc[n+]1Cc1cccc(N2C(=O)c3ccccc3C2=O)n1` yielded an IC50 in experiment [1] of over 100000 nM.
For the compound `Cc1ccc(C[n+]2c(C)sc(CCO)c2C)c(N)n1` [drawing 48], in experiment [1], the IC50 was determined as 31 nM.
Consider `Cc1c(CCO)sc[n+]1Cc1ccc(C(F)(F)F)nc1N`, for which the IC50 came out at 119 nM in experiment [1] and 104 nM in experiment [2].
The corresponding values for `Cc1c(CCO)sc[n+]1Cc1ccccc1N` are over 100000 nM and 198 nM.
As to `Cc1c(CCO)sc[n+]1Cc1ccc(N2C(=O)c3ccccc3C2=O)nc1`, the IC50 is 3150 nM in experiment [1] and 143 nM in experiment [2].
The corresponding values for `Cc1c(CCO)sc[n+]1Cc1cncnc1` are over 100000 nM and 1430 nM.
`Cc1cc(C)c(C[n+]2csc(CCO)c2)c(N)n1` registered an IC50 in experiment [1] of 12500 nM.
Turning to `Cc1c(CCO)sc[n+]1Cc1ccsc1C#N`, the figures for the IC50 in experiment [1] and in experiment [2] were over 33000 nM and 138 nM, respectively.
In the case of `Cc1ccc(C[n+]2c(-c3ccc4c(c3)OCO4)sc(CCO)c2C)c(N)n1`, the IC50 in experiment [1] worked out at 25500 nM.
Still for that read-out and setting: the result for `Cc1c(CCO)sc[n+]1Cc1ccc(Cl)nc1N` reads 156 nM.
For `Cc1c(CCO)sc[n+]1Cc1cnccc1N`, the values for the IC50 in experiment [1] and in experiment [2] were 23900 nM and 64.2 nM, respectively.
Taken in the same sequence, the figures for `Cc1cnc(C[n+]2csc(CCO)c2C)c(N)n1` were 408 nM and 15.2 nM.
The corresponding values for `Cc1c(CCO)sc[n+]1Cc1nccnc1N` are 16500 nM and 61.2 nM.
`Cc1ccc(C[n+]2csc(CCCO)c2C)c(N)n1` registered a half-inhibitory concentration (IC50) in experiment [1] of 1030 nM.
On the same count and under the same terms, the result for `Cc1ccc(C[n+]2c(C)sc(CO)c2C)c(N)n1` reads 237 nM.
Take `Cc1ccc(C[n+]2csc(CCO)c2C)c(N)n1`: the IC50 in experiment [1] is 30 nM; in experiment [2] it was 22 nM.
`Cc1c(CCO)sc[n+]1Cc1ccccn1`: the IC50 in experiment [1] was over 100000 nM.
Same read-out and setting: the result for `Cc1ccc(C[n+]2c(Cc3cccnc3)sc(CCO)c2C)c(N)n1` reads 838 nM.
For `Cc1ccc(C[n+]2c(C)sc(CCO)c2C)c(N)n1` [drawing 55], the figures for the half-inhibitory concentration (IC50) in experiment [1] and in experiment [2] were 49 nM and 24.6 nM, respectively.
In experiment [1], `Cc1cc(C[n+]2csc(CCO)c2C)no1` came in with an IC50 of 5150 nM.
As for `Cc1cc(C)c(C[n+]2csc(C(O)CO)c2C)c(N)n1` (stereo not shown), the IC50 in experiment [1] amounted to 3160 nM; in experiment [2], 90 nM.
As for `Cc1cncc(C[n+]2csc(CCO)c2C)c1`, inhibition in experiment [1] was half-maximal at 37800 nM (IC50).
With `Cc1c(CCO)sc[n+]1Cc1cccnc1N`, the results for the IC50 in experiment [1] and in experiment [2] were 111 nM and 36.5 nM, respectively.
Taken in the same sequence, the figures for `Cc1cc(C)c(C[n+]2csc(CCO)c2C)c(N)n1` were 131 nM and 33.8 nM.
Compound `COc1ccc(C[n+]2csc(CCO)c2C)c(NC(C)=O)n1` yielded an IC50 in experiment [1] of 170000 nM.
Regarding `Cc1c(CCO)sc[n+]1Cc1cncc(C#N)c1`, the results for the IC50 in experiment [1] and in experiment [2] were 119000 nM and 294 nM, respectively.
The compound `COC(=O)CCc1sc[n+](Cc2ccc(C)nc2N)c1C` had an IC50 in experiment [1] of 2330 nM.
Regarding `Cc1ccc(C[n+]2csc(C(O)CO)c2C)c(N)n1` (stereo not shown), the IC50 in experiment [1] amounted to 269 nM; in experiment [2] it was 53.4 nM.
In the case of `Cc1c(CCO)sc[n+]1Cc1ccc(N)nc1`, the results for the IC50 in experiment [1] and in experiment [2] were 1610 nM and 6.95 nM, respectively.
As for `Cc1cc(C)c(C[n+]2cc(CCO)sc2C)c(N)n1`, the midpoint of inhibition in experiment [1], the IC50, lay at 26300 nM.
For `Cc1ncc(C[n+]2c(C(C)O)sc(CCO)c2C)c(N)n1` (stereo not shown), the IC50 in experiment [1] was over 100000 nM; in experiment [2], 851 nM.
The corresponding values for `Cc1c(CCO)sc[n+]1Cc1ccccc1[N+](=O)[O-]` are over 100000 nM and 109 nM.
Consider `Cc1c(CCO)sc[n+]1Cc1ccc(C(F)(F)F)nc1`, for which the half-maximal inhibitory concentration (IC50) in experiment [1] amounted to 471 nM; in experiment [2], 387 nM.
On to `Cc1c(CCO)sc[n+]1Cc1ccccc1`, for which the results for the IC50 in experiment [1] and in experiment [2] were over 100000 nM and 336 nM, respectively.
The corresponding values for `Cc1ccc(C[n+]2c(C(C)O)sc(CCO)c2C)c(N)n1` (stereo not shown) are 34 nM and 91.4 nM.
In experiment [1], `Cc1c(CCO)sc[n+]1Cc1ccc(C(=O)O)cc1` yielded an IC50 of over 100000 nM.
Take `CCc1sc(CCO)c(C)[n+]1Cc1ccc(C)nc1N`: the IC50 in experiment [1] amounted to 26 nM; in experiment [2], 75.5 nM.
